Experimental data from ChEMBL document CHEMBL1137881, “Synthesis of acyloxymethyl ester prodrugs of the transferable protein farnesyl transferase substrate farnesyl methylenediphosphonate” (Bioorg Med Chem Lett, 2004).
pIC50: −log10 of the molar value.

Target: Protein farnesyltransferase (Homo sapiens, UniProt P49354+P49356)
Test: Inhibition of Farnesyltransferase
Format: protein-complex assay

A pIC50 of 6.80 was found for `CC(C)=CCC/C(C)=C/CC/C(C)=C/COP(=O)(O)CP(=O)(O)O` [FARNESYL METHYLENEDIPHOSPHONATE] in this work.
